Where a name gives a salt, the structure may show the parent alone.
How the values were obtained:
[1] = physchem
Source text: The composition preferably comprises an acid, preferably fumaric acid.

[2] = white crystalline powder; cited from earlier work

**Q.** For `OCCOCCN1CCN(C2=Nc3ccccc3Sc3ccccc32)CC1` [Quetiapine fumarate, 2-[2-(4-dibenzo[b,f] [1,4]thiazepin-11-yl-1-piperazinyl)ethoxy]ethanol], which solubility ([1]; pH 1, simulated gastric fluid) is on record?
**A.** 35.8 mg/mL

**Q.** What about the solubility ([1]; pH 6.2, aqueous buffer) of the same compound?
**A.** 4.6 mg/mL

**Q.** What about the solubility in water [2] of the same compound?
**A.** moderately soluble in water

Source: patent publication US7959948B2, “Pharmaceutical composition of quetiapine fumarate” (Synthon BV, priority 2007, dated 2011)
